From US20230220347A1, “SCALING UP MYOGENIC TISSUE: LATE PASSAGE MYOGENICITY” (Upside Foods, Inc., priority 2021, published 2023) come the findings set out here.

“Also recorded” adds a separate entry of the source.

In this experiment the test system is late passage TERT-immortalized 7A chicken fibroblasts stably transfected with ggMYOD. Nature of the experiment: Myotube formation (MyHC staining) of late passage 7A TERT ggMYOD fibroblasts in different media. It counts as cell-based. The settings on record: 7A TERT ggMyoD cells, PDL >100; sodium butyrate 0.1 mM added to ME9. Here is the method: This experiment was designed to assess expression of endogenous downstream myogenic factors (ggMyoG, ggMYMK, and ggMyHC1e) following transfection with a vector encoding ggMYOD in late passage (PDL >100) immortalized fibroblast cells compared to primary fibroblasts. TERT-immortalized 7A fibroblasts were cultured for PDL >100 prior to transfection. For these experiments, a vector including a PGK promoter driving expression of a nucleic acid sequence encoding ggMYOD was transfected into TERT-immortalized 7A chicken fibroblasts (“7A TERT”) or primary fibroblasts using Lipofectamine 3000. Each vector included a puromycin selection cassette to enable selection. Following transfection and selection (0.5 mg/mL puromycin for 4 days), fibroblasts were exposed either to differentiation media (i.e., DMEM/F-12, 2% horse serum) or proliferation media (i.e., ME9; referred to as “undifferentiated” sample (see also culture medias described in FIG. 2)) prior to being assessed for myogenic marker expression using qPCR.
To assess whether the late passage immortalized 7A chicken fibroblasts could be induced to form myotubes, the late passage immortalized 7A chicken fibroblasts stably transfected with ggMYOD (as described above; referred to as 7A TERT ggMYOD) were cultured in media: ME58, ME9, and ME9+0.1 mM sodium butyrate. In FIGS. 13A-C MyHC staining was used to aid identification of myotubes.

As for `CCCC(=O)[O-].[Na+]` [sodium butyrate], the “differentiation capacity (myotube formation, MyHC staining)” value is given as “dramatic improvement in differentiation capacity; also recorded: significant increase in myogenic differentiation capacity”.
